Key:
Format in all cases: cell-based
[1] = system: MCF-7 human breast cancer cells; assay: MTT cell proliferation, MCF-7
Description: (§1) Cell proliferation was measured using dimethylthiazoldiphenyltetrazolium (MTT) reduction (Mosman et al. J. Immunol. Methods 65:55, 1983). Unless otherwise stated, 100 Al of 5 mg of MTT (Sigma-Aldrich, St. Louis, Mo., USA) dissolved in 1 ml of PBS was added into each well. After 4 h, medium was removed from each well, 1.0 ml of acid-isopropanol (0.04 N HCI in isopropanol) was added and reduced MTT was solubilized by mixing. Absorbency of the reaction product was measured at a wavelength of 570 nm using a multiplate spectrophotometer reader (Elx800 Model, Bio-TEK Instruments Inc., Winooski, Vt., USA).
(§2) Unless stated otherwise 1.0 x 10^5 cells/ml were seeded in 6-well flat-bottom tissue culture plates and were maintained for 48 h at 370 C in a 5% CO2 atmosphere.
(§3) PC-3, LNCAP and Du-145 human prostate cancer cells; MCF-7 human breast cancer cells; HT-1080 human fibrosarcoma cancer cells; B16F1 murine melanoma cells; and, UMUC-3, RT-4, HT-1376 and T-24 human bladder cancer cells were incubated with 0.8, 8.0 and 80 μg/ml of 5.0-7.5 x 10^5 Da HA (Table 2).
(§4) Unless stated otherwise 2.0 x 10^4 cells/ml were seeded in 24-well plates and were maintained for 48 h at 370 C in a 5% CO2 atmosphere. MTT was used at 50 μl per well.
(§5) T-24 human bladder cancer cells, PC-3 and Du-145 human prostate cancer cells, and MCF-7 human breast cancer cell were incubated with saline or with 80.0 jg/ml of 5.0-7.5 x 105 Da HA +1.0 μg/ml of M-DNA (Table 4).
MTT was used at 50 µl per well.
Example 8 s HA potentiation of the anti-neoplastic effect ofchemotherapeutic drugs RT-4 human bladder cancer cells and MCF-7 human breast cancer cells were incubated as in Example 6 with 0.0, 0.008 or 0.08 pg/ml of 5.0-7.5 x 10^5 Da HA +0.1 jg/ml of CIS, +1.0 jg/ml of 5-FU or +10 jig/ml of 5-FU (Table 7).
(§6) CD44 expression and the inhibition of proliferation by 5.0-7.5 x 10^5 Da HA were measured using Jurkat T cell leukemia cells; MCF-7 human breast cancer cells; RT-4, T-24, HT-1376 and UMUC-3 human bladder cancer cells; and, PC-3, Du-145 and LNCaP prostate cancer cells (Table 8)

[2] = system: T-24 human bladder cancer cells; assay: MTT cell proliferation, T-24
Description: as §1, §2, §3, §4, §5
HT-1376, RT-4 and T-24 human bladder cancer cells were incubated with 0.8 pg/ml of 5.0-7.5 x 10^5 Da HA +1.0 ug/ml of MCC (Table 5).
as §6

[3] = system: Jurkat T cell leukemia cells; assay: MTT cell proliferation, Jurkat T; settings: HA 80 μg/ml
Description: as §1, §2, §6

[4] = HA 80.0 μg/ml alone (+ saline), 24-well, Example 6

## Hyaluronic acid [5.0-7.5 × 10^5 Da HA]
[1]; HA 0.008 μg/ml alone (+ saline)
  % INHIBITION of cell proliferation: 12%
[1]; HA 0.08 μg/ml alone (+ saline)
  % INHIBITION of cell proliferation: 12%
[1]; HA 0.8 μg/ml, 48 h
  % INHIBITION of cell proliferation: 19%
[1]; HA 8.0 μg/ml, 48 h
  % INHIBITION of cell proliferation: 24%
[1]; [4]
  % INHIBITION of cell proliferation: 35%
[1]; HA 80.0 μg/ml, 48 h
  % INHIBITION of cell proliferation: 35%
[2]; HA 0.8 μg/ml, 48 h
  % INHIBITION of cell proliferation: 10%
[2]; HA 8.0 μg/ml, 48 h
  % INHIBITION of cell proliferation: 8%
[2]; [4]
  % INHIBITION of cell proliferation: 0%
[2]; HA 80.0 μg/ml, 48 h
  % INHIBITION of cell proliferation: 0%
[2]; HA at 0.8 μg/ml alone (+ saline), 24-well, Example 6
  % INHIBITION of cell proliferation: 8%
[3]
  % inhibition of proliferation: 0%
